From patent US10357496B2, “Methods, formulations, and kits for rapidly repleting folate levels in women” (SOUTH ALABAMA MEDICAL SCIENCE FOUNDATION, priority 2011, dated 2019)
Blank lines part the entries; values can stand above or below the compound they belong to.

Legend:
[1] = system: mice homozygous for loss of folate binding protein 1; settings: 10.75 to 43.0 micromoles/kg/day; untreated mice died in utero; optimal between days E7-E9; cited from earlier work
[2] = cited from earlier work
[3] = Procedure: A study of the rate of increase of serum folate with 5-methyl-6S-tetrahydrofolate (6S-5-MTHF) was performed with women of child bearing age (final range: 20 to 44 years old). Volunteers were screened for fasting serum folate, and the lower quintile enrolled (n=21 participants). On the first day, a baseline fasting blood sample was obtained using a serum separator tube, and then a 7.5 mg (16.3 micromoles) oral dose of 6S-5-MTHF along with 0.5 mg of cyanocobalamin was administered. After 24 hours (day 2) and again after 48 hours (day 3) fasting blood samples were withdrawn, and the same doses of 6S-5-MTHF and vitamin B12 were administered. At 72 hours (day 4) and 96 hours (day 5), further blood samples were withdrawn, but without administration of vitamins for the first 10 Subjects.
These subjects returned on days 12 and 19 to provide serum samples. Compliance was established by counting the excess tablets at the end of the study.
The serum samples were frozen and then initially analyzed for total folate using the Immulite 2000 competitive binding assay, and later by microbiological assay using L. rhamnosus. Serum B12 was determined using the Immulite 2000 assay. This study and the following trials B and C were performed with approval by the Institutional Review Board of the University of South Alabama.

[4] = Trial B
Procedure: (§1) The 21 volunteers with a value below 25 nM serum folate at screening ranged between 20 to 44 years old.

[5] = Trial B; microbiological assay
Procedure: as §1

[6] = assay type: in vivo, women
[7] = system: recurrent NTD; settings: 4 mg/day; cited from earlier work
[8] = system: NTD; settings: 400 μg/d, cited from earlier work
[9] = cited from earlier work; remark: listed apart in the source
[10] = system: heart defects; settings: periconceptional use; cited from earlier work
[11] = system: cleft lip/palate; settings: periconceptual administration; cited from earlier work
[12] = Trial A: serum B12 by Immulite 2000 assay; assay type: in vivo, women; settings: three daily 0.5 mg doses, by 72 hours, subjects (n=6) with screening values below 330 pg/mL
Procedure: Serum B12 was determined using the Immulite 2000 assay.
The average vitamin B12 levels specifically for those subjects (n=6) with screening values below 330 pg/mL are shown in FIG. 2 (dotted line). By 72 hours after initiation of the three doses, serum B12 increased on average by about 80 pg/mL, and then fell slightly. Levels below 200 pg/mL are considered to be deficient, and those between 200 and 350 pg/mL are generally considered to be low-normal. Data beyond day 5 are not available for this trial, since only one of those with sub-optimal B12 status volunteered to continue.

[13] = Trial B: serum B12; assay type: in vivo, women
Source text: It is believed that this may be due to uptake of the plasma B12 into the tissues of the deficient or mildly deficient subjects. None the less, by day 12 nearly half of the subjects were still in the normal range.

[14] = after 4 weeks of 800 μg (Brämswig et al.)

Compound: Nc1nc2c(c(=O)[nH]1)N(C=O)C(CNc1ccc(C(=O)N[C@@H](CCC(=O)O)C(=O)O)cc1)CN2 (some centres unmarked) [5-formyl-tetrahydrofolate]
survival and malformations of knockout mice [1]: some of these mice survived, but were subject to malformations

Compound: CN1c2c(nc(N)[nH]c2=O)NCC1CNc1ccc(C(=O)N[C@@H](CCC(=O)O)C(=O)O)cc1 (some centres unmarked) [5-methyltetrahydrofolate]
time to reach plateau in the plasma ([2]; 400 μg/d, young women): 12 weeks
survival and malformations of knockout mice [1]: some of these mice survived, but were subject to malformations

total folate of all subjects by the fourth day ([3]; in vivo): above 55 nM
total folate of all subjects by the third day ([3]; in vivo): above 44 nM
average serum level maintained over the next two weeks ([4]; 0.8 mg/d 6S-5-MTHF starting on day 4): higher than 66 nM
average serum 5-MTHF, day 5 ([4]; 48 hours after last 7.5 mg dose, 0.8 mg/d maintenance from day 4): 74 nM
average serum 5-MTHF, day 4 ([4]; five 7.5 mg doses every 12 hours, 24 hours after last 7.5 mg dose): 98 nM
Compound: CN1c2c(nc(N)[nH]c2=O)NC[C@@H]1CNc1ccc(C(=O)N[C@@H](CCC(=O)O)C(=O)O)cc1 [6S-5-MTHF, 5-methyl-6S-tetrahydrofolate]
number of subjects not reaching greater than 37 nM serum total folate by the second day ([3]; Trial A): three
percent of subjects not reaching greater than 37 nM serum total folate by the second day ([3]; Trial A): 15%
total folate: women below 50 nM during the study [5]: only a single person was ever below 50 nM

highest serum total folate in any measurement, single slow-responding subject ([6]; female, human, in vivo): ≤ 32 nM
Compound: Nc1nc2ncc(CNc3ccc(C(=O)N[C@@H](CCC(=O)O)C(=O)O)cc3)nc2c(=O)[nH]1 [folic acid]
number of subjects below 44 nM total folate by the third day ([6]; Trial C): 9
number of subjects below 50 nM total folate by the fourth day ([6]; Trial C): 10
percent of subjects failing to achieve greater than 37 nM serum total folate by the second day ([6]; Trial C): 40%
number of subjects failing to achieve greater than 37 nM serum total folate by the second day ([6]; Trial C, of 20): 8
recurrent NTD prevented compared to the control group [7]: 72%
NTD cases after treatment, southern region ([8]; 10 per 10,000 births before intervention): 6 per 10,000
NTD cases after treatment, northern region ([8]; 48 per 10,000 births before intervention): 10 per 10,000
average plasma folate level [2, 14]: 50 nM
average red cell folate level [9, 14]: 919 nM
time of treatment to elevate red cell concentrations to 906 nM ([9]; daily dose of 800 μg): 4.2±3.5 weeks
decrease in the prevalence of heart defects [10]: 20%
reduction in recurrence of orofacial clefts (meta-analysis) [11]: two thirds

average increase of serum B12 [12]: about 80 pg/mL
half life of fall of serum B12 after discontinuation ([13]; Trial B, after three daily 1.0 mg doses, approximate exponential): about 2%
Compound: cyanocobalamin
rate of increase of serum B12 ([13]; Trial B three daily 1.0 mg doses versus Trial A 0.5 mg doses): considerably greater than observed with the 0.5 mg doses
subjects with serum B12 still in the normal range by day 12 ([13]; Trial B, after three daily 1.0 mg doses): nearly half
subjects with serum B12 in the normal range by day 4 ([13]; Trial B, three daily 1.0 mg doses): 88%
